No end group written: not given here.
Tests used:
[1] = cited from earlier work
nNOS^VMH neurons [2] = assay: Lordosis test with CNO pre-treatment followed by kisspeptin-10 (kisspeptin-nNOS^VMH coupling); assay type: in vivo, mice
Method: (§1) Chemogenetic manipulations (viral transfection, stereotaxic injections, and behavioral assessment). The AAV9 double floxed Gi-coupled hM4D DREADD fused with fluorescent mCherry protein under the control of human synapsin promoter (AAV-hSyn-DIO-hM4D(Gi)-mCherry) (Addgene; catalog #44362-AAV9) was stereotaxically injected into the vlVMH of Nosl-ires-cre female mice under 4% isoflurane anesthesia with constant airflow. Lordosis test was carried out as described above with sexually experience female mice after three lordosis test trials. Females received i.p. injection with 100 μL of clozapine N-oxide dihydrochloride (CNO; Tocris; catalog #6329), at a dose of 3 mg/kg diluted in sterile saline, one hour before behavioral assessment. Each mouse received either CNO or saline (vehicle) in a random order, and the two behavioral assessments were performed ten days apart.
(§2) Pharmacological treatments. SNAP: Female mice received a subcutaneous (s.c.) injection with 8 mg/kg S-nitroso-N-Acetyl-DL-Penicillamine (SNAP) (Sigma-Aldrich; catalog ##N3398) diluted in 100 μL of saline 15 minutes before behavioral testing and the chosen dose was based on previous reports (25). Kisspeptin: Female mice received a s.c. injection with 0.52 μg/kg kisspeptin-10 (Kiss-10; rodent metastin (45-54) amide; GeneCust; YY-10-NH2) diluted in 100 μL of saline 30 minutes before behavioral test based on previous reports (25). Sildenafil citrate: Female mice received an i.p. injection with 15 mg/kg sildenafil citrate (Sigma-Aldrich; catalog #171599-83-0) 1h before behavioral assessment based on previous trials from our laboratory (Chachlaki et al., unpublished data). Sildenafil citrate was firstly diluted in dimethyl sulfoxide (DMSO) to make up a stock solution of 25 mg/mL and further diluted with sterile saline to make up a working solution of 15 mg/mL for s.c. injection on the day of the injection.
Using a similar approach as described above, we stereotaxically delivered the expression of AAV9-hM4(Gi)-mCherry in nNOS^VMH neurons in both Nos1cre/+ and wild-type female mice. […]

nNOS^VMH neurons [3] = assay: Lordosis test after chemogenetic inhibition (hM4D(Gi) DREADD) of nNOS^VMH neurons with CNO; assay type: in vivo, mice
Method: (§3) Female sexual behavior test. Estrus female mice were tested for lordosis behavior over the dark phase following previously reported protocols (25, 40). During the annotation of sexual behavior, we also assessed sexual rejection behaviors over the same period of time.
as §1
Among the three hypothalamic areas investigated in our study, the VMH (nNOS^VMH) is considered as the NOergic output responsible to control sexual performance in mammalian females (23), whereas nNOS^RP3V and nNOS^ARN are likely to contribute to the neuroendocrine control of GnRH/LH secretion (57, 58). […] To this end, we selectively targeted the expression of designer receptors exclusively activated by designer drugs (DREADD)-based tool hM4(Gi) into the VMH of Nos1cre/+ (Nos1-ires-cre; B6.129-Nos1tm1(cre)Mgmj/J) female mice (59). Viral transduction was established using a Cre-recombinase-dependent adeno-associated virus serotype 9 in which hM4 (Gi) is fused with mCherry reporter under the control of human synapsin (hSyn) promoter (AAV9-hSyn-DIO-hM4D(Gi)-mCherry) (Data not shown). The control group was composed of wild-type female mice receiving the same stereotaxic surgery. This approach provided an average efficiency of 86.82±2.33% of nNOS^VMH neurons targeted with AAV9-hM4 (Gi)-mCherry and with an off-target infection rate of 5.48±2.17% in non-nNOS^VMH neurons (N=5; Data not shown).
Following viral transfection, Nos1^cre/+ female mice were subjected to two lordosis tests and randomly received either vehicle or the DREADD ligand clozapine N-oxide (CNO; 3 mg/kg) one hour before behavioral assessment.

[4] = tested on: control and PAMH female mice; assay: Female sexual behavior test (lordosis, mild and severe rejection quotients) after pharmacological treatment; assay type: in vivo
Method: as §3
All behavior tests were videotaped and manually annotated using Behavioral Observation Research Interactive Software (BORIS) (76).
as §2
Previous reports indicate that the control of female sexual behavior is highly dependent upon NOergic signaling in rodents (23-25). Having established the loss of nNOS expression in hypothalamic sites in PAMH mice, we next addressed whether the replenishment of NO levels could rescue normal sexual function in these females. Control and PAMH female mice were injected either with saline or S-nitroso-N-acetylpenicillamine (SNAP; 8 mg/kg), a well-known NO donor to boost circulating NO levels.
NO-mediated physiological responses are mostly dictated by intracellular levels of cyclic guanosine monophosphate (cGMP). Commonly used drugs for male sexual dysfunction, such as sildenafil citrate, commercialized as Viagra®, enhance NOergic signaling by decreasing the degradation of cGMP accumulating intracellular levels of the latest. To determine the severity of NO insufficiency in PAMH mice, we administered sildenafil citrate to both groups and evaluated lordosis behavior.

cFOS = assay: Percentage of cells expressing cFOS in hypothalamic and limbic areas following the lordosis test; assay type: in vivo, mice
Method: Immunohistochemistry. Tissue preparation for immunohistochemistry is shown in SI Appendix. Free-floating immunohistochemistry was performed as described elsewhere (29, 73). Primary antibodies were used at the respective concentrations: polyclonal sheep anti-nNOS (1:2,000; generous gift from Dr. Piers C. Emson and validated elsewhere (74)), polyclonal rabbit anti-PR (1:500; Sigma; catalog #SAB4502184), rabbit anti-red fluorescent protein (RPF) (1:500; Rockland Immunochemicals, Inc.; catalog #600-401-379), and polyclonal chicken anti-GFP (1:1,000; Aves Labs Inc., catalog #GFP-1020). Brain sections were incubated with a cocktail of primary antibodies and 2% normal donkey serum (NDS) in incubation solution (0.25% bovine serum albumin with 0.3% Triton in TBS) over 48 hours at 4° C. Following washes with TBS, brain sections were incubated with secondary antibodies. Alexa Fluor 488 donkey anti-sheep (reference #A11015), Alexa Fluor 647 donkey anti-rabbit, (reference #A31573), Alexa Fluor 568 donkey anti-rabbit (reference #A10042) were all purchased from Thermo Fisher Scientific Inc. and used at 1:400 dilution in TBS solution. Alexa Fluor 488 donkey anti-chicken (Jackson ImmunoResearch Labs; reference #703-545-155) was used at 1:500 dilution in TBS solution. Sections were mounted onto glass slides and left to dry until covered with Fluoromount-G™ with DAPI (Invitrogen/Thermo Fisher Scientific Inc.; reference #00-4959-52), and coverslipped.
Image acquisition and analysis. Two representative brain sections from each region (RP3V, VMH, rARN, mARN, and cARN) were chosen from each animal for Immunohistological analysis. Brain sections were firstly examined using an Axio Imager, Z1 ApoTome microscope (Zeiss, Oberkochen, Germany), and an AxioCam MRm camera (Zeiss). Confocal imaging and analyses Zeiss Spinning-Disk microscope Yokogawa CSU-X1 model (Zeiss; BioImaging Center Lille (BICeL), of the University of Lille, France). High magnification images were acquired taking Z-stacks of 0.5 μm-steps using a 40x-oil objective (1.30 NA). Confocal images were further processed with ImageJ software for cell counting analysis. Final analysis considered the average counting from two representative sections of each region.
We aimed to determine how 8 mg/kg SNAP treatment may change the neuronal activation landscape in the female brain in estrus control and PAMH mice following the lordosis test. […]

[5] = Nos1cre/+ female mice, CNO 3 mg/kg, P<0.01
[6] = wild-type control group with same surgery, CNO 3 mg/kg
[7] = PAMH female mice, SNAP 8 mg/kg, P<0.0001, similar to control levels
[8] = control female mice, SNAP 8 mg/kg

## [N]=O [Nitric oxide]
[1]
  half-life in the blood: a few seconds

## rodent metastin (45-54) amide (YNWNSFGLRY-NH2; UniProt Q6Y4S4 110-119, looked up) [kisspeptin-10, kisspeptin-10 peptide from GeneCust]
nNOS^VMH neurons [2]; control (wild-type) female mice, kisspeptin-10 0.52 μg/kg, -30 min, P<0.05
  lordosis performance: significantly enhanced lordosis performance

## C[N+]1([O-])CCN(C2=Nc3cc(Cl)ccc3Nc3ccccc32)CC1.Cl.Cl [CNO, clozapine N-oxide dihydrochloride]
nNOS^VMH neurons [3]; Nos1cre/+ female mice with AAV9-hM4D(Gi)-mCherry in VMH, CNO 3 mg/kg i.p. one hour before test, P<0.01 vs vehicle
  lordosis quotient (LQ): 4.24±2.26
nNOS^VMH neurons [3]; [5]
  mild rejection behavior vs vehicle-injected mice: higher
  severe rejection behavior vs vehicle-injected mice: higher
nNOS^VMH neurons [3]; [6]
  lordosis behavior, CNO vs vehicle: did not show any difference between treatments
  mild rejection behavior, CNO vs vehicle: did not show any difference between treatments
  severe rejection behavior, CNO vs vehicle: did not show any difference between treatments
nNOS^VMH neurons [2]; Nos1cre/+ female mice, CNO pre-treatment, P<0.01
  sexual (lordosis) behavior: caused significant disruption of sexual behavior
nNOS^VMH neurons [2]; control (wild-type) female mice, CNO alone, pre-injection -60 min
  lordosis behavioral output: did not have any effect

## CC(=O)NC(C(=O)O)C(C)(C)SN=O (racemic) [SNAP, S-nitroso-N-Acetyl-DL-Penicillamine]
[4]; PAMH female mice, SNAP 8 mg/kg s.c. 15 minutes before test, mean±SEM
  lordosis quotient (LQ): 68.17±6.97
[4]; PAMH female mice, SNAP 8 mg/kg vs saline
  fold increase of lordosis behavior vs saline: ~7.28 fold
[4]; PAMH female mice, SNAP 8 mg/kg, P<0.0001
  lordosis behavior (in words): robustly recovered normal lordosis behavior in PAMH female mice similar to control levels
[4]; [7]
  mild rejection behavior (MRQ): significantly reduced
  severe rejection behavior (SRQ): significantly reduced
[4]; [8]
  mild rejection behavior (MRQ): did not change these parameters
  severe rejection behavior (SRQ): did not change these parameters
cFOS; PAMH mice, SNAP 8 mg/kg
  cFOS expression in vlPAG and dmPAG: did not alter cFOS expression
cFOS; PAMH mice, SNAP 8 mg/kg, P<0.05
  proportion of nNOS neurons expressing cFOS (vlVMH, pdMeA): fully restored the proportion of nNOS cells expressing cFOS to control levels
cFOS; control mice, SNAP 8 mg/kg vs vehicle, P<0.05
  cFOS expression in vlPAG and dmPAG: lower cFOS expression compared with vehicle-treated control mice
cFOS; estrus PAMH mice, SNAP 8 mg/kg, after lordosis test
  cFOS expression in MPA, MnPO, vlVMH and pdMeA: increased cFOS expression in all of these four regions in PAMH mice to control levels

From patent publication US20250288607A1, “METHODS FOR TREATING SEXUAL DYSFUNCTION ASSOCIATED WITH POLYCYSTIC OVARY SYNDROME (PCOS) OR WITH HYPOACTIVE SEXUAL DESIRE DISORDER (HSDD)” (INSTITUT NATIONAL DE LA SANTÉ ET DE LA RECHERCHE MÉDICALE, priority 2022, published 2025)
